Test results: PubChem BioAssay AID1963843 (Molecular Pharmacology Branch, DTP, NCI, 2024)

System: 616215-338-R-J1-PDC complex spheroid viability
Assay: Anticancer human tumor 616215-338-R-J1-PDC patient-derived colon adenocarcinoma cell line growth inhibition [POLQ]
Details: for IC50: curve of first compound; for viability, T/C: stronger effect = lower value; active means viability on the fitted dose curve at most 10% of control; inactive means the rest
Experimental: Multicellular complex tumor spheroid response to Polymerase (POL) inhibitors (novobiocin, ART-558, RP6685) in combination with a variety of drugs and investigational agents in selected tumor cell lines
The POL inhibitors (novobiocin, ART-558, and RP6685) were evaluated both individually and in combination with standard of care and investigational anticancer small molecules within a complex spheroid model of solid tumors. . Complex spheroids include a stromal component modeled by human endothelial cells (HUVEC) and fibroblasts modeled by human mesenchymal stem cells (MSCs). The concentration ranges selected for each drug and investigational agent were based upon clinically achievable concentrations if the clinical Cmax of the agent was known.
Compounds. The drugs and investigational agents: novobiocin (NSC847541), ART-558 (NSC835418), RP-6685 (NSC848927), peposertib (NSC802822), ceralasertib (NSC780249), elimusertib (NSC800525), camonsertib (NSC841442), AZD-1390 (NSC803789), olaparib (NSC753686), talazoparib (NSC767125), rucaparib (NSC756644), sotorasib (NSC818433), MRTX-1133 (NSC836407), SN-38 (NSC673596), topotecan (NSC609699), epotoside (NSC141540), doxorubicin (NSC123127), gemcitabine (NSC613327), 5-fluorouracil (NSC19893), paclitaxel (NSC125973), vemurafenib (NSC761431), MSA-2 (NSC828583), SN-011 (NSC837082), adavosertib (NSC754352), prexasertib (NSC758257), carboplatin (NSC241240) and oxaliplatin (NSC266046), were obtained from the National Cancer Institute (NCI) Developmental Therapeutics Program Chemical Repository (21). The FDA-approved anticancer drug set is available from the Developmental Therapeutics Program at https://dtp.cancer.gov/organization/dscb/obtaining/. […] The stock solutions were prepared in dimethyl sulfoxide (DMSO, Sigma-Aldrich, St. Louis, MO, cat. D2650), except for the platinum compounds which were prepared in saline (Quality Biological, Gaithersburg, MD, cat. 114-055-101), at 800-fold the tested concentration and stored at -70 degrees C prior to their use. All drugs and investigational agents were tested over a range starting from a high concentration at or near the clinical Cmax and decreasing in half-log increments. If the clinical Cmax for an agent had not been determined, the highest concentration tested was 10 microM, except for SN-38, which was tested at a high concentration of 1 microM.
Cell Culture. All cells were maintained in an incubator at 37 degrees C and 5% CO2 with 95% humidity. The PDC lines were cultured according to standard operating procedures established by the NCI PDMR (https://pdmr.cancer.gov). Table 3 of the manuscript, lists the cell lines along with the number of the three cell types plated to form the mct-spheroids and media for tumor cell growth. After thawing, all PDC lines, except 997537-175-T-J1-PDC and 415267-285-R-J2-PDC, were cultured in Matrigel-coated flasks prepared with a working solution of 1X Ham's F-12 nutrient mix, without supplementation (Thermo Fisher Scientific, cat. 11765054), 100 U/mL penicillin-streptomycin (Thermo Fisher Scientific, cat. 15140122), and 2.5% Matrigel (Corning Inc., Corning, NY, cat. 354248) for the first three passages. The two PDC lines 997537-175-T-J1-PDC and 415267-285-R-J2-PDC were cultured on uncoated flasks. The 857933-349-R-J2-PDC line was cultured in 6C/Colon 1B media containing advanced DMEM/F-12 (Thermo Fisher Scientific, cat. 12634028), 10 mM HEPES (Thermo Fisher Scientific, cat. 15630080), 1X GlutaMAX supplement (Thermo Fisher Scientific, cat. 35050061), 0.1 mg/mL primocin (InvivoGen, San Diego, CA, cat. ant-pm-2), 10% defined fetal bovine serum, heat inactivated (HyClone Laboratories Inc., Logan, UT, cat. SH30070.03HI), 50% L-WRN conditioned media (ATCC, cat. CRL-3276), 1.25 mM N-Acetyl-L-cysteine (Sigma-Aldrich, cat. A9165), 10 mM nicotinamide (Sigma-Aldrich, cat. N0636), 1X B-27 supplement (Thermo Fisher Scientific, cat. 17504044), 1X N-2 supplement (Thermo Fisher Scientific, cat. […]
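Further: spheroids exposed to compounds for one week before readout.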
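Wherever viability, T/C is given: percent viability relative to DMSO vehicle wells taken as 100%.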

CNCc1ccc(-c2[nH]c3cc(F)cc4c3c2CCNC4=O)cc1 + Cc1cccc(N(C)C(=O)C2C(O)CCN2c2nc(C)cc(C(F)(F)F)c2C#N)c1
> 10 µM: IC50 (second compound 0.0316 µM) | IC50 (second compound 0.1 µM) | IC50 (second compound 0.316 µM) | IC50 (second compound 1 µM) | IC50 (second compound 3.16 µM) | IC50 (second compound 10 µM)
inactive: viability, T/C (second compound 0.0316 µM, first compound 0.0316 µM) 96.9% | viability, T/C (second compound 0.0316 µM, first compound 0.1 µM) 99.2% | viability, T/C (second compound 0.0316 µM, first compound 0.316 µM) 105% | viability, T/C (second compound 0.0316 µM, first compound 1 µM) 105% | viability, T/C (second compound 0.0316 µM, first compound 3.16 µM) 106% | viability, T/C (second compound 0.0316 µM, first compound 10 µM) 86.2% | viability, T/C (second compound 0.1 µM, first compound 0.0316 µM) 101% | viability, T/C (second compound 0.1 µM, first compound 0.1 µM) 97.7% | viability, T/C (second compound 0.1 µM, first compound 0.316 µM) 95.5% | viability, T/C (second compound 0.1 µM, first compound 1 µM) 101% | viability, T/C (second compound 0.1 µM, first compound 3.16 µM) 108% | viability, T/C (second compound 0.1 µM, first compound 10 µM) 73.8% | viability, T/C (second compound 0.316 µM, first compound 0.0316 µM) 99.8% | viability, T/C (second compound 0.316 µM, first compound 0.1 µM) 103% | viability, T/C (second compound 0.316 µM, first compound 0.316 µM) 96.6% | viability, T/C (second compound 0.316 µM, first compound 1 µM) 105% | viability, T/C (second compound 0.316 µM, first compound 3.16 µM) 105% | viability, T/C (second compound 0.316 µM, first compound 10 µM) 72.8% | viability, T/C (second compound 1 µM, first compound 0.0316 µM) 107% | viability, T/C (second compound 1 µM, first compound 0.1 µM) 108% | viability, T/C (second compound 1 µM, first compound 0.316 µM) 102% | viability, T/C (second compound 1 µM, first compound 1 µM) 103% | viability, T/C (second compound 1 µM, first compound 3.16 µM) 112% | viability, T/C (second compound 1 µM, first compound 10 µM) 70% | viability, T/C (second compound 3.16 µM, first compound 0.0316 µM) 111% | viability, T/C (second compound 3.16 µM, first compound 0.1 µM) 109% | viability, T/C (second compound 3.16 µM, first compound 0.316 µM) 111% | viability, T/C (second compound 3.16 µM, first compound 1 µM) 104% | viability, T/C (second compound 3.16 µM, first compound 3.16 µM) 102% | viability, T/C (second compound 3.16 µM, first compound 10 µM) 65.4% | viability, T/C (second compound 10 µM, first compound 0.0316 µM) 122% | viability, T/C (second compound 10 µM, first compound 0.1 µM) 105% | viability, T/C (second compound 10 µM, first compound 0.316 µM) 109% | viability, T/C (second compound 10 µM, first compound 1 µM) 107% | viability, T/C (second compound 10 µM, first compound 3.16 µM) 108% | viability, T/C (second compound 10 µM, first compound 10 µM) 74.7%
